Data set [1] relates to QGP-1 cells. Nature of the data set: Cell viability (MTT assay). It counts as cell-based. Conditions: Homo sapiens. The method, then:
To investigate the underlying mechanisms of Quercein on EC cell hyperplasia, a EC cell model, QGP-1 cell line is used as EC cell model. Human pancreatic carcinoma QGP-1 cells (JCRB0183, HSRRB, Japan) are cultured in RPMI 1640 supplemented with 10% fetal bovine serum, 100 IU/ml penicillin, and 100 μg/ml streptomycin in a humidified atmosphere of 95% air and 5% CO2 at 37° C. Cells are passaged using 0.025% trypsin and 0.01% EDTA. Cells are trypsinized and seeded in 96-well culture dishes at a density of 5,000-8,000 cells/well and cultured for 24 h or 48 h in the presence of Quercetin (0-100 μM, 0.01% DMSO).
3-(4,5-dimethylthiazol-2yl-)-2,5-diphenyl tetrazolium bromide (MTT) is used to evaluate cell viability. In this assay, cells are seeded in 96-well dishes and cultured for […] in the presence of Quercetin. Subsequently, the culture medium is replaced with 100 μl/well fresh medium containing 0.5 mg/ml MTT, and the cells are further incubated for 4 h at 37° C. The reaction is stopped by adding 100 μl/well 10% SDS in 0.1 M HCl, the absorbance of the plates is read at 570 nm The percent of cell survival is calculated by comparing the average absorbance of the Quercetin treated cells with the corresponding absorbance of the DMSO treated cells. All doses are tested in triplicates and repeated for at least three times.
A general note: Tetrazolium dyes change colour on reduction, which living cells bring about.

In a further data set the test system is TPH. The data set is described as follows: Colonic TPH expression by Western blot. It counts as in vivo, rat. The procedure:
The colon tissues are homogenized and sonicated on ice for protein extraction. After determination of protein content, the samples protein are denatured at 100° C. for 5 min. Proteins are separated by 10% SDS-PAGE and transferred to PVDF membranes (Bio-Rad, CA). After blocking with 5% nonfat milk, the membranes are incubated overnight at 4° C. with rabbit anti-TPH antibody (1:1000, Santa Cruz, Calif.), then incubated with the appropriate secondary antibodies for 1 h at room temperature. The immunoreaction is detected using ECL Western blotting kit (ECL, Amersham, UK). Bands are visualized on Biomax X-ray film, and optical density of each band is semi-quantified by computer software (Image J.NIH). All detected protein bands are normalized to β-actin levels.
A general note: In western blotting, separated proteins are transferred to a membrane and probed.

The test system of a further data set is PI-IBS rats. The data set is described as follows: Colonic EC cell counting (silver staining). The class given is in vivo, rat. Conditions: for EC cell density: PI-IBS rats, colon. The procedure: Six groups of 5 rats are tested. The groups setting and treatments are as described in Example 1. Different from Example 1, AWR test are not applied to the rats in this experiment in order to obtain the basal data without CRD stimulus. After the last drug administration, a 6 cm proximal colon (1-2 cm from caecum) is collected and divided into 3 parts, the proximal is fixed in 4% paraformaldehyde and embedded in paraffin for EC cell staining; the middle part is collected for 5-HT content measurement and electron microscopic evaluation, and the distal part is for western blotting analysis.
(§1) Tissue sections (5-μm thick) are deparaffinized and rehydrated for silver staining. Briefly, sections are incubated with 5% ammoniacal silver solution for 4 h at room temperature, then 2 h in 56° C. and subsequently 12 h at room temperature in a dark humidified chamber. After rinsing with water, 5% sodium hyposulfite is added and the tissue sections are incubated for 5 min at room temperature. The brown to black silver precipitate in the cytoplasm of EC cells represents as a positive reaction. A researcher blinded to treatment counted 5 random fields at 200× magnifications for each section, and the number of EC cells per mm^2 of mucosa is quantified using Image J NIH software.

Data set [2] concerns QGP-1 cells. The data set is described as follows: Apoptosis by DAPI staining, fluorescence microscopy. The class given is cell-based, human. Conditions: QGP-1, 25~100 μM, 24 h. The procedure:
Cells are seeded on coverslips in 24-well plate at the density of 100,000 cells per well and cultured overnight. After exposure to DMSO (control) or different concentration of Quercetin for 24 h, cells are washed three times and fixed with 4% paraformaldehyde for 20 min at room temperature. After washing in PBS, cells are permeabilized in 0.2% tritonX-100 for 10 min and stained with DAPI (20 μg/ml) for 10 min at room temperature in darkness. Slides are examined with a laser scanning microscope (Olympus Fluoview FV1000) 40× magnification. Three hundred cells are counted per slide randomly as previously reported in Ramage L, Jones A C, Whelan C J. Induction of apoptosis with tobacco smoke and related products in A549 lung epithelial cells in vitro. J Inflamm (Lond). 2006; 3:3. Apoptosis cells condense or fragment nuclear chromatin with or without apoptotic bodies, while normal cells have typical morphology with smooth nuclear and membrane.

The subject of the next data set is normal rats. The data set is described as follows: Colonic EC cell density in normal rats. The class given is in vivo, rat. Conditions: 10 mg/kg i.g., 14 days. The method, then: as §1
To identify whether the effects of Quercerin in PI-IBS rats are specific, pain threshold pressure, colonic EC cell number and 5-HT content are further evaluated in normal rats treated with Quercetin. Briefly, Quercetin at the dose of 10 mg/kg is administered to normal rats orally for 14 days. After the final drug administration, pain threshold pressure, colonic EC cell density and 5-HT content are evaluated and the methods used here are as same as that shown in above experiments.

For the next data set, the system named is humans. Conditions: 1000 mg/kg/day orally for several months; cited from earlier work.

For orientation: IC50 means the concentration that inhibits the measured activity by half. High values mean weaker potency in that assay, low ones greater potency in that assay. `O=c1c(O)c(-c2ccc(O)c(O)c2)oc2cc(O)cc(O)c12` [Quercetin, 2-(3,4-dihydroxyphenyl)-3,5,7-trihydroxy-4H-chromen-4-one]: the cytotoxicity at 100 µM in the data set on QGP-1 cells [1] (QGP-1, 24 h, at about 100 μM, read-out: Reduction of cell viability in comparison with the control) was approximately 50%. Also, the IC50 with QGP-1 cells [1] (QGP-1, 48 h incubation) is approximately 50 µM. Besides, the TPH/actin ratio in the data set on TPH (PI-IBS rats, colon, 10 mg/kg i.g.) amounted to 0.62 ± 0.11. In addition, the “Reduction of colonic TPH expression in PI-IBS rats” value with TPH (median dose, 10 mg/kg, p<0.05) is approximately 22.8%. The EC cell density in the data set on PI-IBS rats (5 mg/kg i.g.) is 89 ± 5 Number/mm^2; in the data set on PI-IBS rats (10 mg/kg i.g.) it was 72 ± 7 Number/mm^2; in the data set with PI-IBS rats (20 mg/kg i.g.), 105 ± 8 Number/mm^2; in the data set on normal rats, 91 ± 10 Number/mm^2. Moreover, the “Decrease of EC cells number compared with the PI-IBS group” value was 18% in the data set on PI-IBS rats (low dose (5 mg/kg)) and 42% with PI-IBS rats (median dose (10 mg/kg)). Further, the Apoptosis rate result in the data set with QGP-1 cells [2] is recorded as “concentration-dependently increases”. Moreover, the “Toxicity on oral administration to humans” value in the data set on humans is listed as “no toxicity”.

(Values after patent US20130210907A1, “METHOD FOR PREVENTING OR TREATING ENTEROCHROMAFFIN CELL HYPERPLASIA-RELATED DISEASES BY QUERCETIN ADMINISTRATION” (HONG KONG BAPTIST UNIVERSITY, priority 2012, published 2013).)
